# Data: patent publication US20240383915A1, “OXAZEPINE COMPOUNDS AND USES THEREOF IN THE TREATMENT OF CANCER” (Genentech, Inc., priority 2021, published 2024)
# pIC50: −log10 of the molar value.
# How the values were obtained:
# KRAS wild type = KRAS wild type (Homo sapiens (Human), UniProt P01116); assay: KRas (wt) GDP HTRF (BODIPY-GDP exchange TR-FRET); format: biochemical
# Description: (§1) KRAS Biochemical Assay—BODIPY-GDP Exchange TR-FRET. Biochemical compound potencies were assessed by evaluating inhibition of SOS1-mediated nucleotide exchange in KRAS G12D. The SOS1-promoted exchange of fluorescently-labeled GDP (BODIPY-GDP) was monitored by time-resolved fluorescence resonance energy transfer (TR-FRET). Compounds solubilized in DMSO were dispensed as concentration series into 384-well white assay plates. A preformed complex of biotin-tagged recombinant human KRAS (1.5 nM mutant G12D or wild type) and 0.15 nM terbium-labeled streptavidin (CisBIO) prepared in 10 μL/well assay buffer (20 mM HEPES, pH 7.5, 50 mM NaCl, 10 mM MgCl2, 0.01% Tween-20 and 1 mM dithiothreitol) was added and allowed to incubate for 10-minutes. The reaction was initiated with the addition of 5 μL of 3 nM recombinant human SOS1 and 300 nM BODIPY-GDP in assay buffer. After a 60-minute incubation, the fluorescence was measured with excitation at 337 nm and emission at 490 and 520 nm. The TR-FRET ratio was determined as the fluorescence at 520 nm divided by the fluorescence at 490 nm multiplied by 10,000. […] The normalized TR-FRET results were plotted against compound concentration, and the data fit to a 4-parameter Hill equation to determine the IC50 values.
# [1] = test system: KRAS wild type human lung adenocarcinoma cell line (PC-9); assay: KRAS 3D-cell proliferation assay, CTG panel non G12D; format: cell-based; conditions: 168 h, CellTiter-Glo 3D, 7 days
# Description: (§2) KRAS 3D-Cell Proliferation Assays. Cellular potencies of compounds were assessed by evaluating inhibition of proliferation in 3D cultures of homozygous mutant KRAS G12D human pancreatic cell lines (AsPC-1 and SW1990) as compared to a KRAS wild type human lung adenocarcinoma cell line (PC-9). Cells were seeded into 384-well black round-bottom, ultra-low attachment assay plates in 50 μL cell growth medium (RPMI-1640 with 10% fetal bovine serum and 2 mM L-glutamine). After overnight incubation at 37° C. and 5% CO2, compounds solubilized in DMSO were added as dilution series to the wells in a total volume of 150 nL (0.3% DMSO final). The cells were incubated for 7 days at 37° C. and 5% CO2. Cell proliferation was quantitated by addition of 40 μL/well of CellTiter-Glo® 3D (Promega). This reagent in combination with mechanical disruption releases the cellular ATP to promote activity in a luciferase-based enzyme/substrate chemiluminescent detection system. After a 25-minute incubation under ambient conditions with shaking and an additional 10 minutes without shaking, the contents of the wells were mixed by pipetting up and down repeatedly to disrupt the spheroids, and then the plates were centrifuged to remove bubbles. The plates were incubated for another 15 minutes under ambient conditions, and the luminescence read on a plate reader (e.g. EnVision [PerkinElmer]). […] The normalized luminescence results were plotted against compound concentration, and the data fit to a 4-parameter Hill equation to determine the IC50 values.
# [2] = biological target: Raf-RBD/KRAS G12D interaction (Homo sapiens (Human), UniProt P01116, G12D); assay: KRAS G12D NanoBRET assay; format: cell-based; conditions: HCT116
# Description: KRAS G12D NanoBRET Assay. Cellular target engagement was assessed by monitoring inhibition of the Raf-RBD/KRAS G12D interaction in a NanoBRET™ assay (Promega). […] Cells were seeded into 384-well white tissue culture-treated assay plates in 40 μL culture medium (RPMI-1640 with 10% fetal bovine serum, 2 mM glutamine, […] puromycin, and 4 ng/mL blasticidin) with doxycycline to induce KRAS G12D-nanoluciferase expression over 20-24 h at 37° C., 5% CO2. The culture medium was then removed and replaced with assay medium (Opti-MEM® with 4% fetal bovine serum) and 0.1 μM HaloTag618 ligand. During the subsequent 4 h incubation at 37° C., 5% CO2, the HaloTag618 ligand binds to the Halotag-labeled KRAS G12D. Compounds solubilized in DMSO were then added as dilution series to the wells in a total volume of 160 nL (0.4% DMSO final), and the plates were incubated overnight at 37° C., 5% CO2. In the final step, 10 μL NanoGlo substrate in Opti-MEM was added to each well, and the emission read at 460 nm (luciferase signal) and 610 nm (NanoBRET signal) on an EnVision plate reader (PerkinElmer). The Raf-RBD/KRAS G12D interaction results in bioluminescence resonance energy transfer (BRET) from the product of the luciferase reaction in the vicinity of the Raf-RBD to the HaloTag ligand acceptor on the KRAS G12D and generates the NanoBRET signal. Binding of compounds to KRAS G12D and disruption of its interaction with Raf-RBD results in reduction of this signal. The luciferase signal and NanoBRET signal for compound wells were divided by the average corresponding signal for DMSO control wells. Then the NanoBRET ratio was calculated by dividing the control-adjusted NanoBRET signal by the similarly adjusted luciferase signal. […] The normalized NanoBRET ratio results were plotted against compound concentration, and the data fit to a 4-parameter Hill equation to determine the IC50 values.
# KRAS G12D = KRAS G12D (Homo sapiens (Human), UniProt P01116, G12D); assay: KRas (G12D) GDP HTRF (BODIPY-GDP exchange TR-FRET); format: biochemical
# Description: as §1
# [3] = test system: KRAS G12D human pancreatic cell lines (AsPC-1 and SW1990); assay: KRAS 3D-cell proliferation assay, CTG panel (G12D); format: cell-based; conditions: 168 h, CellTiter-Glo 3D, 7 days
# Description: as §2
# Chain of KRAS wild type (P01116-2 other isoform, or with tags, fused parts or gaps): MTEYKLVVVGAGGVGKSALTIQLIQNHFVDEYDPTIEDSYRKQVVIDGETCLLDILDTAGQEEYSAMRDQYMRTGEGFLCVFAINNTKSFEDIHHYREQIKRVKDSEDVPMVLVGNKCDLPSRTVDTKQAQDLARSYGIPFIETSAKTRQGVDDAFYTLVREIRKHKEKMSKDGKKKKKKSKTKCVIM
# Chain of Raf-RBD/KRAS G12D interaction (P01116-2 other isoform, or with tags, fused parts or gaps G12D): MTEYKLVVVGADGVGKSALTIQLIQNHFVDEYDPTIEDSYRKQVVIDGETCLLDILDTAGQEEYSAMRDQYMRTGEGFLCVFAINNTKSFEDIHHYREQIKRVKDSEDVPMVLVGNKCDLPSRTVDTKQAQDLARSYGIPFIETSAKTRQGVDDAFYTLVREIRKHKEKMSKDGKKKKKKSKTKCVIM
# Chain of KRAS G12D (P01116-2 other isoform, or with tags, fused parts or gaps G12D): as above
pIC50 (KRAS wild type),pIC50 [1],pIC50 [2],pIC50 (KRAS G12D),pIC50 [3],Structure (SMILES)
4.82,4.73,≤ 5.00,5.46,4.83,Cc1cc(N)nc(-c2cc3ncnc4c3c(c2Cl)OCCN4CCN2CCOCC2)c1C(F)(F)F [Example 504]
7.32,5.53,5.09,8.22,5.65,C=C1CN2CCC[C@@]2(COc2nc3c4c(c(Cl)c(-c5nc(N)cc(C)c5C(F)(F)F)cc4n2)OCCN3CCN(C)C)C1 [Example 511]

Structure (SMILES),pIC50 (KRAS wild type),pIC50 [1],pIC50 [2],pIC50 (KRAS G12D),pIC50 [3]
"Cc1cc(N)nc(-c2cc3ncnc4c3c(c2Cl)OCCN4CCN(C)CCO)c1C(F)(F)F [Example 502, 2-((2-(9-(6-Amino-4-methyl-3-(trifluoromethyl)pyridin-2-yl)-8-chloro-5,6-dihydro-4H-[1,4]oxazepino[5,6,7-de]quinazolin-4-yl)ethyl)(methyl)amino)ethan-1-ol]",4.15,5.10,≤ 5.00,5.56,5.02
